Measurements published in patent US12286632B2, “Rationally-designed synthetic peptide shuttle agents for delivering polypeptide cargos from an extracellular space to the cytosol and/or nucleus of a target eukaryotic cell, uses thereof, methods and kits relating to same” (Feldan Bio Inc., priority 2016, dated 2025).
Bridge positions count the residues as written; N and C are the ends. Ends that are not written are not given here. Peptide text beside a SMILES is read from it. I, II: the chains in the order shown.

What was measured:
in vitro [1] = conditions: human, HeLa cells
HeLa cells = assay: GFP-NLS protein transduction assay (flow cytometry: Pos cells %, viability %, relative fluorescence intensity; microscopy); conditions: for Mean % cells with GFP signal (±St Dev.; n = 3): Table B3, HeLa cells, GFP-NLS cargo; for Mean % cells with GFP signal (±St. Dev.; n = 3) / Cell viability (%) (±St. Dev.; n = 3) / FIG. 21B Cell viability (%) (±St. Dev.; n = 3): HeLa; for FIG. 21B Cell viability (%) (±St. Dev.; n = 3): Table 8.1, 1 hour; for cell viability: peptide 20 μM, Protocol B (Table 10.3e)
in vitro [2] = conditions: human, HeLa cells; remark: listed apart in the source
[3] = Cell viability (%) (±St. Dev.; n = 3)
[4] = Table 10.4, Protocol B, peptide 50 μM, GFP-NLS 5 μM, 10 seconds
[5] = Table 10.3a, Protocol B, shuttle 50 μM, GFP-NLS 5 μM, 10 seconds
[6] = Table 10.3e, Protocol B, shuttle 20 μM, GFP-NLS 5 μM, 1 minute
[7] = Table 10.1, Protocol B, shuttle 50 μM, GFP-NLS 5 μM, 10 seconds

CC(C)C[C@H](NC(=O)[C@H](CC(C)C)NC(=O)[C@H](CCCNC(=N)N)NC(=O)[C@H](CCCNC(=N)N)NC(=O)[C@H](Cc1c[nH]c2ccccc12)NC(=O)[C@H](CC(C)C)NC(=O)[C@H](Cc1ccc(O)cc1)NC(=O)[C@H](CC(C)C)NC(=O)[C@H](CC(C)C)NC(=O)[C@H](Cc1c[nH]cn1)NC(=O)[C@H](Cc1c[nH]cn1)NC(=O)[C@H](Cc1c[nH]cn1)NC(=O)[C@H](Cc1c[nH]cn1)NC(=O)[C@H](Cc1c[nH]cn1)NC(=O)[C@@H](N)Cc1c[nH]cn1)C(=O)N[C@@H](CCCCN)C(=O)N[C@@H](Cc1ccccc1)C(=O)N[C@@H](Cc1c[nH]c2ccccc12)C(=O)N[C@@H](CS)C(=O)N[C@@H](C)C(=O)NCC(=O)N[C@@H](CCCNC(=N)N)C(=O)N[C@@H](CCCNC(=N)N)C(=O)N[C@H](C(=O)N[C@@H](Cc1ccc(O)cc1)C(=O)N[C@@H](C)C(=O)N[C@@H](CCCCN)C(=O)N[C@@H](CS)C(=O)N[C@@H](C)C(=O)N[C@@H](CCCCN)C(=O)N[C@@H](C)C(=O)N[C@@H](Cc1ccc(O)cc1)C(=O)NCC(=O)N[C@@H](CS)C(=O)N[C@@H](Cc1ccccc1)C(=O)O)C(C)C [FSN4] (H-HHHHHHLLYLWRRLLKFWCAGRRVYAKCAKAYGCF-OH; N-terminus and C-terminus assumed)
viability (in vitro [1]; [3]): 90.5 ± 4.18% | Mean % cells with GFP signal (±St Dev.; n = 3) (HeLa cells): 5.84 ± 0.49%

N=C(N)NCCC[C@H](NC(=O)[C@H](CCCNC(=N)N)NC(=O)[C@H](CCCNC(=N)N)NC(=O)[C@H](CCC(N)=O)NC(=O)[C@H](CCCNC(=N)N)NC(=O)[C@H](CCCNC(=N)N)NC(=O)[C@H](CCCCN)NC(=O)[C@H](CCCCN)NC(=O)[C@H](CCCNC(=N)N)NC(=O)CNC(=O)[C@@H](N)Cc1ccc(O)cc1)C(=O)O [TAT, reference compound]
viability at 10 s, 50 µM (in vitro [1]): 94.6 ± 0.44% | Mean % cells with GFP signal (±St. Dev.; n = 3) (HeLa cells; [4]): 1.1 ± 0.27% | GFP-NLS transduction (flow cytometry, in words) (HeLa cells; peptide 50 μM, GFP-NLS 5 μM, 10 seconds, Protocol B): not able to successfully transduce GFP-NLS

CC[C@H](C)[C@H](NC(=O)[C@@H](NC(=O)[C@H](Cc1ccccc1)NC(=O)[C@@H](N)CCCCN)[C@@H](C)O)C(=O)N[C@H](C(=O)N[C@@H](Cc1ccccc1)C(=O)N1CCC[C@H]1C(=O)N[C@@H](Cc1c[nH]cn1)C(=O)N[C@@H](CC(N)=O)C(=O)N[C@@H](CCC(N)=O)C(=O)N[C@@H](CCCCN)C(=O)NCC(=O)N[C@@H](CC(N)=O)C(=O)N[C@@H](Cc1c[nH]c2ccccc12)C(=O)N[C@@H](CCCCN)C(=O)N[C@@H](CC(N)=O)C(=O)N[C@H](C(=O)N1CCC[C@H]1C(=O)N[C@@H](CO)C(=O)N[C@@H](CC(N)=O)C(=O)N[C@@H](Cc1ccc(O)cc1)C(=O)N[C@@H](Cc1c[nH]cn1)C(=O)N[C@@H](Cc1ccc(O)cc1)C(=O)N[C@@H](CS)C(=O)N1CCC[C@H]1C(=O)N[C@@H](Cc1ccc(O)cc1)C(=O)N[C@@H](C)C(=O)N[C@@H](CCCNC(=N)N)C(=O)N[C@@H](C)C(=O)N[C@@H](C)C(=O)N[C@@H](C)C(=O)N[C@@H](CCCNC(=N)N)C(=O)N[C@@H](CCC(N)=O)C(=O)N[C@@H](C)C(=O)N[C@@H](CCCNC(=N)N)C(=O)N[C@@H](C)C(=O)O)C(C)C)C(C)C [VSVG-PTD4]
viability (in vitro [2]): 96.2 ± 2.57% | Cell viability (%) (±St. Dev.; n = 3) (HeLa cells; [5]): 100%

CC(C)C[C@H](NC(=O)[C@H](C)NC(=O)[C@H](CCCCN)NC(=O)[C@H](C)NC(=O)[C@H](CC(C)C)NC(=O)[C@H](CCCCN)NC(=O)[C@H](C)NC(=O)[C@H](CCC(=O)O)NC(=O)[C@H](Cc1c[nH]c2ccccc12)NC(=O)CNC(=O)[C@@H](NC(=O)[C@@H]1CCCN1C(=O)[C@H](CCCNC(=N)N)NC(=O)[C@H](CC(C)C)NC(=O)[C@H](CS)NC(=O)[C@@H](N)CC(C)C)C(C)C)C(=O)N[C@@H](C)C(=O)N[C@@H](CCCCN)C(=O)N[C@@H](C)C(=O)N[C@@H](CC(C)C)C(=O)N[C@@H](C)C(=O)N[C@@H](CCCCN)C(=O)N[C@@H](Cc1c[nH]cn1)C(=O)N[C@@H](CC(C)C)C(=O)N[C@@H](C)C(=O)N[C@@H](CCCCN)C(=O)N[C@@H](C)C(=O)N[C@@H](CC(C)C)C(=O)N[C@@H](C)C(=O)N[C@@H](CCCCN)C(=O)N[C@@H](C)C(=O)N[C@@H](CC(C)C)C(=O)N[C@@H](CCCCN)C(=O)N[C@@H](C)C(=O)N[C@@H](CS)C(=O)N[C@@H](CCC(=O)O)C(=O)N[C@@H](C)C(=O)O [Xentry-KALA] (H-LCLRPVGWEAKLAKALAKALAKHLAKALAKALKACEA-OH)
viability (in vitro [2]): 75.3 ± 4.29%

HAHHAHHAHKWKLFKKIGAVLKVLTTGYARAAARQARA [3HA-CM18-PTD4]
viability (in vitro [2]): 51.5 ± 4.83% | Cell viability (%) (±St. Dev.; n = 3) (HeLa cells; [6]): 43.6 ± 2.8%

HHHAHHHKWKLFKKIGAVLKVLTTGYARAAARQARA [HA-CM18-PTD4]
viability (in vitro [2]): 53.2 ± 4.62% | Cell viability (%) (±St. Dev.; n = 3) (HeLa cells; [6]): 68.3 ± 4.1%

HHHHHHHHHHHHKWKLFKKIGAVLKVLTTGYARAAARQARA [12His-CM18-PTD4]
viability (in vitro [2]): 97.5 ± 1.57% | Cell viability (%) (±St. Dev.; n = 3) (HeLa cells; [6]): 33.4 ± 4.3%

HHHHHHKLKLRSRLKWGRTQLWRALAKKALLHHHHHH [FSN2]
viability (in vitro [1]; [3]): 91.3 ± 4.66% | Mean % cells with GFP signal (±St Dev.; n = 3) (HeLa cells): 12.13 ± 2.06%

HHHHHHKRKRRSKKRKLWTQGWLLLALLALAHHHHHH [FSN1]
viability (in vitro [1]): 94.3 ± 3.07% | Mean % cells with GFP signal (±St Dev.; n = 3) (HeLa cells): 9.14 ± 0.93%

HHHHHHKWKLFKKIGAVLKVLTTGGWTLNSAGYLLKINLKALAALAKKIL [His-CM18-Transportan]
viability (in vitro [2]): 11.9 ± 1.07%

HHHHHHKWKLFKKIGAVLKVLTTGRRRRRRRRR [His-CM18-9Arg]
viability (in vitro [2]): 31.63 ± 0.11% | Cell viability (%) (±St. Dev.; n = 3) (HeLa cells; [7]): 45.8 ± 5.4% | Cell viability (%) (±St. Dev.; n = 3) (HeLa cells; [5]): 45.8 ± 3.53%

HHHHHHKWKLFKKIGAVLKVLTTGYARAAARQARAHHHHHH [His-CM18-PTD4-His]
viability (in vitro [2]): 29.4 ± 2.38% | Cell viability (%) (±St. Dev.; n = 3) (HeLa cells; Table 10.3c, Protocol B, shuttle 10 μM, GFP-NLS 5 μM, incubation 1 min): 68.1 ± 2.7% | Cell viability (%) (±St. Dev.; n = 3) (HeLa cells; Table 10.3c, Protocol B, shuttle 10 μM, GFP-NLS 5 μM, incubation 2 min): 61.6 ± 3.2% | Cell viability (%) (±St. Dev.; n = 3) (HeLa cells; Table 10.3c, Protocol B, shuttle 10 μM, GFP-NLS 5 μM, incubation 5 min): 41.2 ± 4.4% | Cell viability (%) (±St. Dev.; n = 3) (HeLa cells; [6]): 78.6 ± 1.1%

HHHHHHKWKLFKKIGAVLKVLTTGYGRKKRRQRRR [His-CM18-TAT]
viability (in vitro [2]): 13.6 ± 0.18% | FIG. 21B Cell viability (%) (±St. Dev.; n = 3) (HeLa cells; GFP-NLS 5 μM, shuttle 1 μM): 95 ± 3.05% | FIG. 21B Cell viability (%) (±St. Dev.; n = 3) (HeLa cells; GFP-NLS 5 μM, shuttle 3 μM): 91 ± 5.18% | FIG. 21B Cell viability (%) (±St. Dev.; n = 3) (HeLa cells; GFP-NLS 5 μM, shuttle 5 μM): 86 ± 4.59% | Cell viability (%) (±St. Dev.; n = 3) (HeLa cells; [7]): 35.2 ± 5.7% | Cell viability (%) (±St. Dev.; n = 3) (HeLa cells; [5]): 35.2 ± 5.7%

HHHHHHKWKLFKKIGAVLKVLTTGYGRKKRRQRRRC [His-CM18-TAT-Cys]
viability at 10 s, 50 µM (in vitro [1]): 41.4 ± 3.91% | Mean % cells with GFP signal (±St. Dev.; n = 3) (HeLa cells; [5]): 49.3 ± 4.1%

HHHHHHLLKLWSRLLKLWTQALRALAKRAKALAHHHHHH [FSN6]
viability (in vitro [1]; [3]): 32.6 ± 4.26% | Mean % cells with GFP signal (±St Dev.; n = 3) (HeLa cells): 15.74 ± 1.63%

HHHKWKLFKKIGAVLKVLTTGYARAAARQARA [3His-CM18-PTD4]
viability (in vitro [2]): 82 ± 6.81% | Cell viability (%) (±St. Dev.; n = 3) (HeLa cells; [6]): 39.2 ± 3.3%

I: KWKLFKKIGAVLKVLTTGRQIKIWFQNRRMKWKKC / II: KWKLFKKIGAVLKVLTTGRQIKIWFQNRRMKWKKC (disulfide I:35-II:35) [dCM18-Pen-Cys]
viability (in vitro [2]): 3.36 ± 0.26%

KWKLFKKIGAVLKVLTTG [CM18, reference compound]
viability (in vitro [2]): 99.4 ± 0.14% | Cell viability (%) (±St. Dev.; n = 3) (HeLa cells; [4]): 95 ± 1.2%

KWKLFKKIGAVLKVLTTGGGSGGGSYARAAARQARA [CM18-L2-PTD4]
viability (in vitro [2]): 93.7 ± 3.07% | Cell viability (%) (±St. Dev.; n = 3) (HeLa cells; [6]): 64.0 ± 1.3% | cell viability (HeLa cells; GFP-NLS 5 μM, 1 minute): increased cell viability

KWKLFKKIGAVLKVLTTGGGSYARAAARQARA [CM18-L1-PTD4]
viability (in vitro [2]): 84.3 ± 5.64% | Cell viability (%) (±St. Dev.; n = 3) (HeLa cells; [6]): 50.1 ± 3.8% | cell viability (HeLa cells; GFP-NLS 5 μM, 1 minute): increased cell viability

KWKLFKKIGAVLKVLTTGYARAAARQARA [CM18-PTD4]
viability (in vitro [2]): 49.6 ± 5.06% | Cell viability (%) (±St. Dev.; n = 3) (HeLa cells; [6]): 33.9 ± 3.7% | cell viability (HeLa cells; GFP-NLS 5 μM, 1 minute): 33.9%

KWKLFKKIGAVLKVLTTGYARAAARQARAHHHHHH [CM18-PTD4-His]
viability (in vitro [2]): 29.5 ± 0.21%

MHHHHHHKWKLFKKIGAVLKVLTTGYGRKKRRQRRRC [M-His-CM18-TAT-Cys]
viability (in vitro [2]): 33.1 ± 0.4%

WEAKLAKALAKALAKHLAKALAKALKACEA [KALA, reference compound]
viability (in vitro [2]): 90.6 ± 4.16%

YGRKKRRQRRRCKWKLFKKIGAVLKVLTTG [TAT-CM18]
viability (in vitro [2]): 44.8 ± 4.17% | Cell viability (%) (±St. Dev.; n = 3) (HeLa cells; [7]): 23.5 ± 1.1% | Cell viability (%) (±St. Dev.; n = 3) (HeLa cells; Table 10.3b, Protocol B, shuttle 50 μM, GFP-NLS 5 μM, 10 seconds): 23.5 ± 1.1%
